Results on 5 molecules are retold here after article PMC2728155 (Molecular cancer therapeutics, 2009).

Molecules are shown by their SMILES. Like-named read-outs stand apart in the source and are kept apart here. A value given as a limit tells only on which side of the number the result lay.

Data set [1] concerns the target T1, human sEH (Homo sapiens, UniProt P34913).
T1 sequence (P34913 1-555): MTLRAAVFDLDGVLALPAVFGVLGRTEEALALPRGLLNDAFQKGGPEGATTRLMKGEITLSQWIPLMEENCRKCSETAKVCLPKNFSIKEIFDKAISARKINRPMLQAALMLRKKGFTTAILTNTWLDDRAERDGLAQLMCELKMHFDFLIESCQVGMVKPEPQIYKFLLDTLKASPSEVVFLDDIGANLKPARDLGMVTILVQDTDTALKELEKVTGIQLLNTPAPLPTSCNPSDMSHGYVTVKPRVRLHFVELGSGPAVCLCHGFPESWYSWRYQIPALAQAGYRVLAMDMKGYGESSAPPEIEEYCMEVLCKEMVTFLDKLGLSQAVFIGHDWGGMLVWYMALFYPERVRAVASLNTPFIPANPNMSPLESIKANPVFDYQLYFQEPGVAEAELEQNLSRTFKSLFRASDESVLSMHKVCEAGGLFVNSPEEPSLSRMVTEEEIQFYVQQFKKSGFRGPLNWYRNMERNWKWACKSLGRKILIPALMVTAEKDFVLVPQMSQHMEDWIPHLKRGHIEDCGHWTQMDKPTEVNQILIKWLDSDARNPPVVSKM
Nature of the data set: biochemical. The data set is classed as biochemical.

Data set [2] concerns ACHN and A498 human RCC cells. Nature of the data set: MTT assay of cell growth. Type of data set: cell-based. The following applies: 10 μM, 48 h.
Data set [3] has as its system ERK phosphorylation in ACHN and A498 cells. Nature of the data set: Immunoblot of ERK phosphorylation after PDGF stimulation. The following applies: two RCC cell lines (ACHN, A498), 10 μM, 1 h, then PDGF 10 ng/ml 15 min. Type of data set: cell-based, human.
The conditions of data set [4]: man, phase I study, cited from earlier work.
A short description of a further data set: in vivo. The conditions noted are these: male, Swiss-Webster, mouse, po, 5 mg/kg.
In data set [5] the test system is caspase-1 and caspase-3 activity in ACHN and A498 cells. Nature of the data set: Caspase assay. Type of data set: cell-based, human. The conditions noted are these: 10 μM, 48 h.
For data set [6] the following is noted: mice, sorafenib tosylate 5 mg/kg oral.
The target in the next data set is T2, murine sEH (Mus musculus, UniProt P34914).
T2 sequence (P34914 1-554): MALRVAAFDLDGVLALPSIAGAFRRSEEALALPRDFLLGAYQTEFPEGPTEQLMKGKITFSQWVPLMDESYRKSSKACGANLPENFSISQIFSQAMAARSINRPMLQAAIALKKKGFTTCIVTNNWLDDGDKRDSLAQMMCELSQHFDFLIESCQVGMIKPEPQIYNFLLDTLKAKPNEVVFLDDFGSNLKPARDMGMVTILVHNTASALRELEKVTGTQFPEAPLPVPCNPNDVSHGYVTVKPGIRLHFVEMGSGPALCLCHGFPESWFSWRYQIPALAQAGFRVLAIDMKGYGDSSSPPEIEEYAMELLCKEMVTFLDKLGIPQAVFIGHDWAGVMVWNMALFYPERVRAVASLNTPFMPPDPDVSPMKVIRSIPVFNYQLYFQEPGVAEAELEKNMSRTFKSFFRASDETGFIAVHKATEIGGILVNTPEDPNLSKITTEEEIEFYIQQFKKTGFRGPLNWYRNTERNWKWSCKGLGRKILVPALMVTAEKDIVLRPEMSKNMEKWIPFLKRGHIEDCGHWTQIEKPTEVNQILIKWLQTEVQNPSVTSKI
In words: Fluorescent sEH inhibition assay.

The target of data set [7] is T1, human sEH. Type of data set: biochemical. The conditions noted are these: read-out: Inhibition of the Human sEH KI; pH 7.4.

As for `CCN(CC)CCNC(=O)c1c(C)[nH]c(/C=C2\C(=O)Nc3ccc(F)cc32)c1C` [Sunitinib], the IC50 on human sEH [1] came to 55 µM. Also, on human sEH [1] (fluorescent assay), the “Inhibition of the human sEH (in words)” value is given as “not potent inhibitors of the human sEH”.
On to `CNC(=O)c1cc(Oc2ccc(NC(=O)Nc3ccc(Cl)c(C(F)(F)F)c3)cc2)ccn1` [Sorafenib], for which, in [2], the “Decrease of cell growth as compared to serum-stimulated cells” value is 65-70%. Moreover, the ERK phosphorylation entry in [3] is on record as “attenuate ERK phosphorylation”. The Cmax in data set [4] (similar doses) is over 1500 nM. Further, in data set [4], the AUC0-12 result was “more than 13000 nM h”, the Elimination half life entry was “more than 20 hours” and the Tmax result was “more than 2 h”. For the same molecule, in the data set “in vivo”, the AUC(0-t) is 0.63 µM·h, the Cmax is about 120 nM and the half-life was 2.6 h. Besides, the “Apoptosis: caspase-1 and caspase-3 activity” value in data set [5] is “activation of caspase-1 and caspase-3 activity”. In addition, the “Blood level after 24 h” value in [6] was “no sorafenib could be detected”.
With `Cc1nc(Nc2ncc(C(=O)Nc3c(C)cccc3Cl)s2)cc(N2CCN(CCO)CC2)n1` [Dasatinib], at murine sEH, the IC50 worked out at 27 µM.
Regarding `CS(=O)(=O)N1CCC(NC(=O)Nc2ccc(OC(F)(F)F)cc2)CC1` [TUPS], the IC50 on human sEH [1] (read-out: Inhibition of the Human sEH IC50, pH 7) was found to be 0.003 ± 0.001 µM. Besides, at human sEH [7], the inhibition constant (Ki) came to 0.014 ± 0.004 µM.
`COc1cccc(-c2cc(=O)c3ccccc3o2)c1N` [PD98059]: the ERK phosphorylation entry in data set [3] is given as “attenuate ERK phosphorylation”.
